What all share (assay): NCI anticancer screen, dose series, 48 h
For experiment [1], the system named is ACHN.
Experiment [2] deals with CAKI-1.
In experiment [3] the test system is COLO 205.
For experiment [4], the system named is EKVX.
In experiment [5] the test system is HCC 2998.
In experiment [6] the test system is HCT-15.
Experiment [7] relates to HOP-62.
The subject of experiment [8] is HOP-92.
The test system of experiment [9] is K562.
The test system of experiment [10] is LOX IMVI.
The subject of experiment [11] is MOLT-4.
Experiment [12] concerns OVCAR-3.
Experiment [13] concerns RXF 393.
Experiment [14] concerns SF-268.
Experiment [15] deals with SF-539.
In experiment [16] the test system is SK-OV-3.
In experiment [17] the test system is SN12C.
For experiment [18], the system named is SNB-19.
Experiment [19] concerns T47D.
In experiment [20] the test system is UACC-257.

Each structure is given as a SMILES string.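 How tested: cells in 96-well plates exposed to compound for 48 hours at five concentrations. The concentration for 50% growth inhibition is given as GI50.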 The source made the active and inactive calls. No stated cut-off is given here; in the data, active = GI50 up to about 1.1 µM and inactive = higher.

On to `CC1=C2C(=O)c3ccccc3C(=O)[C@H]2C[C@@H](N2CCCC2=O)O1`, for which the GI50 in experiment [1] was 90.6 µM (inactive); in experiment [2] it was 77.3 µM (inactive); in [3], 79.1 µM (inactive); in experiment [4], 76.4 µM (inactive); in experiment [5], > 100 µM (inactive); in experiment [6], 49.2 µM. Moreover, the GI50 in [7] was 39.6 µM (inactive); in experiment [8], 21.9 µM (inactive); in [9], 49.8 µM (inactive); in experiment [10] it was 20.2 µM (inactive); in experiment [11] it was 32.1 µM (inactive); in experiment [12] it was 26.5 µM (inactive). The GI50 in experiment [13] was 23.7 µM (inactive); in experiment [14], 48.1 µM (inactive); in experiment [15], 25.5 µM (inactive); in experiment [16] it was > 100 µM (inactive); in experiment [17], 53.2 µM (inactive); in [18], > 100 µM (inactive). The figures for the GI50 in [19] and in [20] were 22.8 µM (inactive) and 65.6 µM (inactive), respectively.
Take `OC1CSCCCSCCSCCCSC1`: the GI50 was > 100 µM (inactive) in [1]; > 100 µM (inactive) in experiment [2]; > 100 µM (inactive) in experiment [3]; > 100 µM (inactive) in [4]; > 100 µM (inactive) in experiment [5]; greater than 100 µM in [6]. Also, the GI50 was > 100 µM (inactive) in [7]; > 100 µM (inactive) in [8]; > 100 µM (inactive) in [9]; > 100 µM (inactive) in [10]; 12.1 µM (inactive) in experiment [11]; > 100 µM (inactive) in experiment [12]. The GI50 in [13], in [14], in [15], in experiment [16], in experiment [17] and in experiment [18] was > 100 µM (inactive) each time. Besides, the GI50 in [19] and in experiment [20] was > 100 µM (inactive) throughout.
Regarding `COC(=O)c1c2c(cc3c1CC1(C3)Cc3ccc4c(c3C1=O)CCC4)CCC2` (stereo not given), the GI50 in [1] is 5.15 µM (inactive); in [2] it was 2.26 µM (inactive); in experiment [3], 2.37 µM (inactive); in experiment [4], 8.17 µM (inactive); in experiment [5], 6.52 µM (inactive); in [6], 3.58 µM. Also, the GI50 was 3.25 µM (inactive) in experiment [7]; 1.84 µM (inactive) in experiment [8]; 2.2 µM (inactive) in experiment [9]; 3.9 µM (inactive) in experiment [10]; 4.41 µM (inactive) in experiment [11]; 1.94 µM (inactive) in [12]. In addition, the GI50 is 0.537 µM (active) in experiment [13]; 6.31 µM (inactive) in [14]; 2.38 µM (inactive) in [15]; 3.93 µM (inactive) in experiment [16]; 4.2 µM (inactive) in experiment [17]; 4.12 µM (inactive) in [18]. For the same molecule, the GI50 in [19] was 5.13 µM (inactive); in experiment [20], 5.04 µM (inactive).
For the molecule `Cc1c(C2CCSc3ccccc3N2)sc2ccccc12` (stereo not given), the GI50 was > 100 µM (inactive) in experiment [1]; 52.5 µM (inactive) in experiment [2]; > 100 µM (inactive) in [3]; 30.9 µM (inactive) in experiment [4]; 80.4 µM (inactive) in experiment [5]; 74.5 µM in [6]. Also, the GI50 in experiment [7] is > 100 µM (inactive); in experiment [8] it was > 100 µM (inactive); in experiment [9], 51.5 µM (inactive); in [10], > 100 µM (inactive); in experiment [11], 77.3 µM (inactive); in experiment [12], > 100 µM (inactive). The GI50 is 86.5 µM (inactive) in experiment [13]; > 100 µM (inactive) in experiment [14]; > 100 µM (inactive) in experiment [15]; > 100 µM (inactive) in [16]; > 100 µM (inactive) in [17]; > 100 µM (inactive) in [18]. Besides, the GI50 in experiment [19] was 87.9 µM (inactive); in experiment [20], 99.8 µM (inactive).
Turning to `CCN(CC)CCNc1c2ccccc2nc2cccc([N+](=O)[O-])c12`, the GI50 was 0.00665 µM (active) in [1]; 0.0158 µM (active) in experiment [2]; 0.00461 µM (active) in [3]; 0.0177 µM (active) in experiment [4]; 0.0151 µM (active) in [5]; 0.00701 µM in experiment [6]. Moreover, the GI50 in experiment [7] is 0.00638 µM (active); in experiment [8] it was 0.0146 µM (active); in [9] it was 0.0157 µM (active); in experiment [10], 0.0225 µM (active); in [11], 0.0117 µM (active); in experiment [12], 0.0123 µM (active). Further, the GI50 is 0.0176 µM (active) in experiment [13]; 0.012 µM (active) in experiment [14]; 0.0224 µM (active) in [15]; 0.0343 µM (active) in experiment [16]; 0.0124 µM (active) in [17]; 0.0186 µM (active) in experiment [18]. Moreover, the GI50 was 0.0101 µM (active) in [19] and 0.0255 µM (active) in experiment [20].
In the case of `COc1ccc(C)c2c1N[C@](C)([C@]1(C)Nc3c(OC)ccc(C)c3C1=O)C2=O`, the GI50 in [1] is > 100 µM (inactive); in experiment [2], > 100 µM (inactive); in experiment [3], > 100 µM (inactive); in experiment [4] it was > 100 µM (inactive); in experiment [5], > 100 µM (inactive); in experiment [6] it was greater than 100 µM. For the same molecule, the GI50 in experiment [7] is 94.4 µM (inactive); in experiment [8], 38 µM (inactive); in experiment [9], > 100 µM (inactive); in experiment [10], > 100 µM (inactive); in [11], > 100 µM (inactive); in [12] it was > 100 µM (inactive). Further, the GI50 is > 100 µM (inactive) in experiment [13]; 51.6 µM (inactive) in experiment [14]; > 100 µM (inactive) in experiment [15]; > 100 µM (inactive) in experiment [16]; > 100 µM (inactive) in experiment [17]; 68.9 µM (inactive) in experiment [18]. For the same molecule, the GI50 in experiment [19] and in experiment [20] was > 100 µM (inactive) each time.

Values taken from ChEMBL document CHEMBL1201862, “PubChem BioAssay data set” (2004).
